Assay results: ChEMBL document CHEMBL2029326, “Alstiphyllanines I-O, ajmaline type alkaloids from Alstonia macrophylla showing vasorelaxant activity” (Bioorg Med Chem, 2012)
Activity calls are given as the source filed them. The calls are words filed in the database; no cut-off is given here.

Experiments:
Assay type in all cases: functional, tissue-based
Aorta [1] = assay: Vasorelaxant activity in Wistar rat endothelium-intact thoracic aortic ring assessed as inhibition of phenylephrine-induced contraction at 30 uM measured after 60 mins
Aorta [2] = assay: Vasorelaxant activity in Wistar rat endothelium-denuded thoracic aortic ring assessed as inhibition of phenylephrine-induced contraction measured after 60 mins
Aorta [3] = assay: Vasorelaxant activity in Wistar rat endothelium-denuded thoracic aortic ring assessed as inhibition of phenylephrine-induced contraction measured after 60 mins in presence of 100 uM L-NMMA
Aorta [4] = assay: Vasorelaxant activity in Wistar rat endothelium-intact thoracic aortic ring assessed as inhibition of phenylephrine-induced contraction at 30 uM measured within 5 to 15 mins
Aorta [5] = assay: Vasorelaxant activity in Wistar rat endothelium-intact thoracic aortic ring assessed as inhibition of phenylephrine-induced contraction at 100 uM measured after 60 mins
Aorta [6] = assay: Vasorelaxant activity in Wistar rat phenylephrine-prestimulated endothelium-denuded thoracic aortic ring assessed as inhibition of CaCl2-induced contraction added before PE-stimulation
Aorta [7] = assay: Vasorelaxant activity in Wistar rat endothelium-denuded thoracic aortic ring assessed as inhibition of phenylephrine-induced contraction measured after 60 mins in presence of Bkca inhibitor TEA pretreated for 30 mins before contraction
Aorta [8] = assay: Vasorelaxant activity in Wistar rat endothelium-denuded thoracic aortic ring assessed as inhibition of KCl-induced contraction at 30 uM pretreated for 30 mins measured after 60 mins

With `C/C=C1\CN2[C@H]3C[C@@]45c6ccccc6N(C)[C@@H]4[C@@H]2C[C@@H]1[C@@]3(C(=O)OC)C5OC(C)=O` (some centres undefined) the Activity (Aorta [1]) was “Active”, the Activity (Aorta [2]) was “Active” and the Activity (Aorta [3]) was “inactive”. For the same molecule, the Activity (Aorta [4]) was “Active”, the Activity (Aorta [5]) was “Active” and the Activity (Aorta [6]) was “Active”. For the same molecule, the Activity (Aorta [7]) was “Dose-dependent effect” and the Activity (Aorta [8]) was “Active”.

`C/C=C1\CN2[C@H]3C[C@@]45c6ccccc6N(C)[C@@H]4[C@@H]2C[C@@H]1[C@@]3(C(=O)OC)C5OC(=O)c1ccc(OC)c(OC)c1` (some centres undefined) was tested, and the Activity (Aorta [1]) was “Active”.

In the case of `C/C=C1\C[N+]2([O-])[C@H]3C[C@@H]1[C@]1(C(=O)OC)[C@@H](OC(C)=O)[C@]4(C[C@@H]12)c1ccccc1N(C)[C@H]34`, the Activity (Aorta [1]) was “Active”.

In the case of `C/C=C1\CN2[C@H]3C[C@@]45c6ccccc6N(C(=O)c6cc(OC)c(OC)c(OC)c6)[C@@H]4[C@@H]2C[C@@H]1C3(C(=O)OC)[C@H]5OC(C)=O` (some centres undefined), the Activity (Aorta [1]) was “Active”.

For `C/C=C1\CN2[C@H]3C[C@@]45c6ccccc6N(C(=O)c6ccccc6)[C@@H]4[C@@H]2C[C@@H]1C3(C(=O)OC)[C@H]5O` (some centres undefined), the Activity (Aorta [1]) was “Active”.

For `C/C=C1\CN2[C@H]3C[C@@]45c6ccccc6N(C)[C@@H]4[C@@H]2C[C@@H]1[C@@]3(C(=O)OC)C5O` (some centres undefined), the Activity (Aorta [1]) was “Active”.

For `C/C=C1\CN2[C@H]3C[C@@]45c6ccccc6N(C(=O)c6cc(OC)c(OC)c(OC)c6)[C@@H]4[C@@H]2C[C@@H]1C3(C(=O)OC)[C@H]5O` (some centres undefined), the Activity (Aorta [1]) was “Active”.

With `C/C=C1/CN2[C@H]3C[C@@]45c6ccccc6N(C(=O)c6cc(OC)c(OC)c(OC)c6)[C@@H]4[C@@H]2C[C@@H]1C3(C(=O)OC)[C@H]5O` (some centres undefined) the Activity (Aorta [1]) was “Active”.

With `C/C=C1\C[N+]2([O-])[C@H]3C[C@@H]1[C@@]1(C(=O)OC)C(O)[C@]4(C[C@@H]12)c1ccccc1N(C)[C@H]34` (some centres undefined) the Activity (Aorta [1]) was “Active”.

With `C/C=C1\CN2[C@H]3C[C@@]45c6ccccc6N(C(=O)c6ccc(OC)c(OC)c6)[C@@H]4[C@@H]2C[C@@H]1C3(C(=O)OC)[C@H]5O` (some centres undefined) the Activity (Aorta [1]) was “Active”.

With `C/C=C1\CN2[C@H]3C[C@@]45c6ccccc6N(C)[C@@H]4[C@@H]2C[C@@H]1[C@@]3(C(=O)OC)C5OC(=O)c1cc(OC)c(OC)c(OC)c1` (some centres undefined) the Activity (Aorta [1]) was “Active”.

With `C/C=C1\CN2[C@H]3C[C@@]45c6ccccc6N(C(=O)c6ccc(OC)c(OC)c6)[C@@H]4[C@@H]2C[C@@H]1C3(C(=O)OC)[C@H]5OC(C)=O` (relative stereo) the Activity (Aorta [1]) was “Active”.
